How the values were obtained:
topoisomerase I = molecular target: T1, topoisomerase I (Homo sapiens, UniProt P11387); conditions: metabolite of irinotecan; cited from earlier work
T1 sequence (P11387 1-765): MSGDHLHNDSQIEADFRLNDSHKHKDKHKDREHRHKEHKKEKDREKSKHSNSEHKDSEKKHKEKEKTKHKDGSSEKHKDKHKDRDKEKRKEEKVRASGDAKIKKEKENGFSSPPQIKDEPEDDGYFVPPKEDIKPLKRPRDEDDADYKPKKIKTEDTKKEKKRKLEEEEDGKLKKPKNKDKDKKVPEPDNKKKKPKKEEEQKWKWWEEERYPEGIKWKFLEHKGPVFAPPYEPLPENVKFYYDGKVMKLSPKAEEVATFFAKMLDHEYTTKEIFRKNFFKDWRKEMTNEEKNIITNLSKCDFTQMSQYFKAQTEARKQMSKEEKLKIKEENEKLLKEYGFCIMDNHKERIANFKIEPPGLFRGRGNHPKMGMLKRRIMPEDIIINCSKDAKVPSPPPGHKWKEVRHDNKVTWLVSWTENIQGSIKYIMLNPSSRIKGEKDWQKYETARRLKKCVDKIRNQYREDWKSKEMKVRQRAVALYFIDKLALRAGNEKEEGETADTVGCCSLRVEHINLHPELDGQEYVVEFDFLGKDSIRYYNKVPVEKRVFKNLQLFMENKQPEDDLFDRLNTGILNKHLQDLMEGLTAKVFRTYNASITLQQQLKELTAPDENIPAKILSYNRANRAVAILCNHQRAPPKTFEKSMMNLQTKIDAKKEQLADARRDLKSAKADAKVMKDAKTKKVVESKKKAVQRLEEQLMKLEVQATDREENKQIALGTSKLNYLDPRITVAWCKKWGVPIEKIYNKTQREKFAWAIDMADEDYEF

[1] = system: colorectal cancer patients; assay: Survival of colon cancer patients treated with 5-FU, grouped by NT5E-predicted sensitivity; format: in vivo, human; conditions: adjuvant chemotherapy with 5-FU; NT5E expression below vs above population median; 232 colorectal cancer biopsies; p=0.006
Protocol: A clinical dataset of 232 pre-treatment fresh frozen colorectal cancer surgical biopsies was downloaded from Gene Expression Omnibus under accession number GSE17538. The biopsies were analyzed using the Affymetrix HG-U133-Plus_2 array type. The expression of NT5E was determined by reading the intensity of Affymetrix probeset 203939_at, which is predicted to be more highly expressed in 5-FU-resistant patients. Patients were predicted sensitive to 5-FU if the expression of NT5E was below the population median. Patients were predicted resistant if expression of NT5E was above the population median.

colorectal cancer = conditions: cited from earlier work

SMILES	Potency as a topoisomerase inhibitor relative to irinotecan (topoisomerase I)	Survival of predicted-sensitive group versus predicted-resistant group [1]	Survival effect of 5-FU treatment (colorectal cancer; adjuvant setting of colorectal cancer)	Response rate, 5-FU monotherapy (colorectal cancer; metastatic colorectal cancer)
CCc1c2c(nc3ccc(O)cc13)-c1cc3c(c(=O)n1C2)COC(=O)[C@]3(O)CC [SN-38]	significantly greater potency			
O=c1[nH]cc(F)c(=O)[nH]1 [5-Fluorouracil (5-FU), 5-fluorouracil]		significantly higher rate of survival	survival benefit	10-15%
